Experimental data published in patent US5865792A, “Reduction of skin irritation during electrotransport delivery” (priority 1997, dated 1999).

What was measured:
[1] = tested on: skin; conditions: prolonged exposure; cited from earlier work
[2] = tested on: skin; test: skin irritation (α), electrotransport of placebo drug (sodium chloride), hydrocortisone in the cathodic reservoir (Example IV); format: in vivo
From the text: In vivo electrically assisted delivery of a placebo drug (sodium chloride) with various liquid solvents was accomplished both with and without co-delivery of an anti-inflammatory agent (hydrocortisone) using electrotransport systems substantially similar to those described in Example II. Four different electrotransport system configurations were constructed.
The anode material used in each of the systems was silver foil and the cathode material used in each of the systems was silver chloride. The size of the gels and the applied current levels were the same as in Example II.

[3] = tested on: skin; conditions: otherwise equivalent reservoirs; cited from earlier work
[4] = tested on: human skin
[5] = tested on: human skin; test: skin irritation (α), electrotransport of placebo drug (sodium chloride) in 50% propylene glycol with and without hydrocortisone (Example V); format: in vivo, human volunteer; conditions: FIG. 8; 0.5% (w/v) hydrocortisone in 50% propylene glycol, cathodic and anodic reservoirs; 100 μA/cm^2, 3 h
Method: In vivo electrically assisted delivery of a placebo drug (sodium chloride), with a liquid solvent in which hydrocortisone has good solubility, was accomplished both with and without co-delivery of hydrocortisone using electrotransport systems substantially similar to those described in Example II, and having anodic/cathodic reservoir gels of the following formulations: […]
An electrotransport system was constructed having anodic and cathodic reservoirs comprised of 350 μl of gel formulation I. This system was applied on the left forearm of a human volunteer. The skin contact area of each electrode gel was 2 cm^2. The anode material used in the systems was silver foil and the cathode material used in each of the systems was silver chloride. The electrodes were connected to a galvanostat preset to deliver a constant current of 100 μA/cm^2. Simultaneously another electrotransport system with similar size and current density, but whose anodic and cathodic reservoirs were comprised of 350 μl of gel formulation II was applied on the right forearm of the same volunteer. The systems were worn for 3 hours. After removal, skin irritation (α) was monitored using the Minolta Chroma Meter.

[6] = water; cited from earlier work
[7] = metoclopramide blood plasma concentrations during/after electrotransport delivery with and without hydrocortisone (HPLC); format: in vivo, human volunteers; conditions: FIG. 3; 10% MCP, 0.5% HC in anodic reservoir vs MCP alone; 100 μA/cm^2, 4 h
From the text: MCP is a water soluble drug salt.

Row | SMILES | local side effects such as skin thinning [1] | reduction of erythema of the skin in contact with the cathodic reservoir ([2]; 0.25 mg/mL hydrocortisone in water) | reddening of the skin in contact with the cathodic reservoir ([2]; FIG. 7, system 1: 5 mg/mL hydrocortisone, 40% ethanol, vs 40% ethanol without hydrocortisone) | erythema values, System 3 vs System 4 ([2]; System 3: 0.25 mg/mL hydrocortisone in water, no ethanol) | electroosmotic flux from a cathodic reservoir vs. equivalent anodic reservoir [3] | skin irritation (α) vs. anodic reservoirs containing no hydrocortisone ([4]; FIG. 2, 0.5% HC with 10% MCP in anodic reservoir, 4 h wear, 1, 4, 24, 48 h after removal) | erythema compared to reservoirs containing no hydrocortisone [5] | solubility in words [6] | effect of addition of hydrocortisone on delivery of metoclopramide into the bloodstream [7] | skin irritation caused by the drug ([4]; in vivo)
1 | C[C@]12CCC(=O)C=C1CC[C@@H]1[C@@H]2C(O)C[C@@]2(C)[C@H]1CC[C@]2(O)C(=O)CO (stereo partly shown) [hydrocortisone, 11,17,21-trihydroxypregn-4-ene-3,20-dione] | does not result in unacceptable local side effects such as skin thinning | insufficient to reduce erythema | significant reduction in the reddening of the skin | substantially the same (i.e., at most only about one α unit apart) | substantially lower | less skin irritation | substantially less erythema | – | – | –
2 | CCN(CC)CCNC(=O)c1cc(Cl)c(N)cc1OC [metoclopramide HCI] | – | – | – | – | – | – | – | water soluble | does not significantly affect the delivery of metoclopramide into the bloodstream | skin irritating drug
